Patent publication US20240391862A1, “(1,4,5-TRISUBSTITUTED-1H-PYRAZOL-3-YL)OXY-2-ALKOXY ALKYL ACIDS AND THEIR DERIVATIVES, THEIR SALTS AND THEIR USE AS HERBICIDAL AGENTS” (Bayer AKtiengesellschaft, priority 2021, published 2024)

Columns and labels:
Experiment in all cases: Post-emergence herbicidal effect, greenhouse pot test
VERPE = type: in vivo, Veronica persica; conditions: Veronica persica, 504 h, read-out: Post-emergence effect against VERPE in %
Outline: (§1)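 Weeds sown in sandy loam, greenhouse-grown 2–3 weeks, then sprayed at one-leaf stage with WP or EC formulations in water plus 0.5% additive at 600 l/ha. Rates 20 to 320 g/ha. Visual rating after about 3 weeks versus untreated controls (100% = plants dead, 0% = like control).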

VIOTR = type: in vivo, Viola tricolor; conditions: Viola tricolor, 504 h, read-out: Post-emergence effect against VIOTR in %
Outline: as §1

ECHCG = type: in vivo, Echinochloa crus-galli; conditions: Echinochloa crus-galli, 504 h; for pest or weed control at 20 g/ha: visual rating about 3 weeks after treatment, read-out: Post-emergence effect against ECHCG; for pest or weed control at 80 g/ha / pest or weed control at 320 g/ha: read-out: Post-emergence effect against ECHCG in %
Outline: as §1

AMARE = type: in vivo, Amaranthus retroflexus; conditions: Amaranthus retroflexus, 504 h, visual rating about 3 weeks after treatment, read-out: Post-emergence effect against AMARE
Outline: as §1

PHBPU = type: in vivo, Ipomoea purpurea; conditions: Ipomoea purpurea, 504 h, read-out: Post-emergence effect against PHBPU in %
Outline: as §1

KCHSC = type: in vivo; conditions: 504 h, read-out: Post-emergence effect against KCHSC in %
Outline: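 Visual rating of activity against untreated plants (100% = plants died, 0% = no effect), done about 3 weeks after treatment. Compounds applied at 20–320 g/ha as aqueous spray (600 l/ha, 0.5% additive) from WP or EC formulations onto one-leaf-stage plants grown in sandy loam under greenhouse conditions.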

ALOMY = type: in vivo, Alopecurus myosuroides; conditions: Alopecurus myosuroides, 504 h, visual rating about 3 weeks after treatment, read-out: Post-emergence effect against ALOMY
Outline: as §1

MATIN = type: in vivo, Tripleurospermum inodorum; conditions: Tripleurospermum inodorum, 504 h, read-out: Post-emergence effect against MATIN in %
Outline: as §1

LOLRI = type: in vivo, Lolium rigidum; conditions: Lolium rigidum, 504 h, 320 g/ha, read-out: Post-emergence effect against LOLRI in %
Outline: as §1

ABUTH = type: in vivo, Abutilon theophrasti; conditions: Abutilon theophrasti, 504 h, visual rating about 3 weeks after treatment, read-out: Post-emergence effect against ABUTH
Outline: as §1

AVEFA = type: in vivo, Avena fatua; conditions: Avena fatua, 504 h, visual rating about 3 weeks after treatment, read-out: Post-emergence effect against AVEFA
Outline: as §1

POLCO = type: in vivo, Fallopia convolvulus; conditions: Fallopia convolvulus, 504 h, read-out: Post-emergence effect against POLCO in %
Outline: as §1

SETVI = type: in vivo, Setaria viridis; conditions: Setaria viridis, 504 h, read-out: Post-emergence effect against SETVI in %
Outline: as §1

DIGSA = type: in vivo, Digitaria sanguinalis; conditions: Digitaria sanguinalis, 504 h, visual rating about 3 weeks after treatment, read-out: Post-emergence effect against DIGSA
Outline: as §1

## CCOC(=O)C(OCC)Oc1nn(-c2ccccc2F)c(-c2ccc(F)nc2)c1Cl (centres unmarked) [Example I-50]
VERPE
  pest or weed control at 80 g/ha: 90%
  pest or weed control at 320 g/ha: 90%
VIOTR
  pest or weed control at 80 g/ha: 80%
  pest or weed control at 320 g/ha: 90%
ECHCG
  pest or weed control at 20 g/ha: 90%
  pest or weed control at 80 g/ha: 90%
  pest or weed control at 320 g/ha: 90%
AMARE
  pest or weed control at 320 g/ha: 80%
PHBPU
  pest or weed control at 80 g/ha: 90%
  pest or weed control at 320 g/ha: 90%
KCHSC
  pest or weed control at 320 g/ha: 80%
ALOMY
  pest or weed control at 320 g/ha: 80%
MATIN
  pest or weed control at 320 g/ha: 80%
LOLRI
  pest or weed control at 320 g/ha: 90%
ABUTH
  pest or weed control at 80 g/ha: 80%
  pest or weed control at 320 g/ha: 90%
AVEFA
  pest or weed control at 320 g/ha: 90%
POLCO
  pest or weed control at 320 g/ha: 80%
SETVI
  pest or weed control at 80 g/ha: 90%
  pest or weed control at 320 g/ha: 90%
DIGSA
  pest or weed control at 320 g/ha: 90%

## COC(=O)C(OC)Oc1nn(-c2ccccc2F)c(-c2ccc(F)nc2)c1C(F)(F)F (centres unmarked) [Example I-70]
VERPE
  pest or weed control at 80 g/ha: 90%
  pest or weed control at 320 g/ha: 90%
VIOTR
  pest or weed control at 80 g/ha: 90%
  pest or weed control at 320 g/ha: 90%
ECHCG
  pest or weed control at 80 g/ha: 90%
  pest or weed control at 320 g/ha: 90%
AMARE
  pest or weed control at 80 g/ha: 80%
  pest or weed control at 320 g/ha: 80%
PHBPU
  pest or weed control at 80 g/ha: 90%
  pest or weed control at 320 g/ha: 90%
KCHSC
  pest or weed control at 20 g/ha: 80%
  pest or weed control at 80 g/ha: 90%
  pest or weed control at 320 g/ha: 90%
ALOMY; 80 g/ha
  pest or weed control at 80 g/ha: 80%
ALOMY
  pest or weed control at 320 g/ha: 90%
MATIN; 80 g/ha
  pest or weed control at 80 g/ha: 80%
MATIN
  pest or weed control at 320 g/ha: 80%
LOLRI
  pest or weed control at 320 g/ha: 90%
ABUTH
  pest or weed control at 80 g/ha: 80%
  pest or weed control at 320 g/ha: 90%
AVEFA
  pest or weed control at 80 g/ha: 90%
  pest or weed control at 320 g/ha: 90%
POLCO
  pest or weed control at 20 g/ha: 80%
  pest or weed control at 80 g/ha: 80%
  pest or weed control at 320 g/ha: 80%
SETVI
  pest or weed control at 80 g/ha: 80%
  pest or weed control at 320 g/ha: 80%
DIGSA
  pest or weed control at 80 g/ha: 80%
  pest or weed control at 320 g/ha: 90%

## COC(=O)C(OC)Oc1nn(-c2ncccc2F)c(-c2cncc(F)c2)c1I (centres unmarked) [Example I-72]
VERPE
  pest or weed control at 320 g/ha: 90%
VIOTR; 20 g/ha
  pest or weed control at 20 g/ha: 90%
VIOTR
  pest or weed control at 80 g/ha: 90%
  pest or weed control at 320 g/ha: 90%
ECHCG
  pest or weed control at 20 g/ha: 90%
  pest or weed control at 80 g/ha: 90%
  pest or weed control at 320 g/ha: 90%
AMARE; 20 g/ha
  pest or weed control at 20 g/ha: 80%
AMARE
  pest or weed control at 80 g/ha: 80%
  pest or weed control at 320 g/ha: 80%
PHBPU; 20 g/ha
  pest or weed control at 20 g/ha: 80%
PHBPU
  pest or weed control at 80 g/ha: 90%
  pest or weed control at 320 g/ha: 90%
KCHSC
  pest or weed control at 20 g/ha: 90%
  pest or weed control at 80 g/ha: 90%
  pest or weed control at 320 g/ha: 90%
ALOMY
  pest or weed control at 320 g/ha: 90%
LOLRI
  pest or weed control at 320 g/ha: 90%
ABUTH
  pest or weed control at 80 g/ha: 80%
  pest or weed control at 320 g/ha: 90%
AVEFA
  pest or weed control at 80 g/ha: 90%
  pest or weed control at 320 g/ha: 90%
POLCO
  pest or weed control at 20 g/ha: 80%
  pest or weed control at 80 g/ha: 80%
  pest or weed control at 320 g/ha: 90%
SETVI; 20 g/ha
  pest or weed control at 20 g/ha: 90%
SETVI
  pest or weed control at 80 g/ha: 90%
  pest or weed control at 320 g/ha: 90%
DIGSA
  pest or weed control at 80 g/ha: 90%
  pest or weed control at 320 g/ha: 90%
